In publication PMC3140938 (Analytical and Bioanalytical Chemistry, 2011):
Entries after “also recorded” stand apart in the source; their conditions may differ. Like-named read-outs stand apart in the source and are kept apart here.

What was measured:
hGRα [1] = molecular target: T1, hGRα (Homo sapiens, UniProt P04150); assay: cell-based; format: cell-based; conditions: for RCP (relative corticoid potency): ratio EC50 of dexamethasone / EC50 of compound
T1 sequence (P04150 1-777): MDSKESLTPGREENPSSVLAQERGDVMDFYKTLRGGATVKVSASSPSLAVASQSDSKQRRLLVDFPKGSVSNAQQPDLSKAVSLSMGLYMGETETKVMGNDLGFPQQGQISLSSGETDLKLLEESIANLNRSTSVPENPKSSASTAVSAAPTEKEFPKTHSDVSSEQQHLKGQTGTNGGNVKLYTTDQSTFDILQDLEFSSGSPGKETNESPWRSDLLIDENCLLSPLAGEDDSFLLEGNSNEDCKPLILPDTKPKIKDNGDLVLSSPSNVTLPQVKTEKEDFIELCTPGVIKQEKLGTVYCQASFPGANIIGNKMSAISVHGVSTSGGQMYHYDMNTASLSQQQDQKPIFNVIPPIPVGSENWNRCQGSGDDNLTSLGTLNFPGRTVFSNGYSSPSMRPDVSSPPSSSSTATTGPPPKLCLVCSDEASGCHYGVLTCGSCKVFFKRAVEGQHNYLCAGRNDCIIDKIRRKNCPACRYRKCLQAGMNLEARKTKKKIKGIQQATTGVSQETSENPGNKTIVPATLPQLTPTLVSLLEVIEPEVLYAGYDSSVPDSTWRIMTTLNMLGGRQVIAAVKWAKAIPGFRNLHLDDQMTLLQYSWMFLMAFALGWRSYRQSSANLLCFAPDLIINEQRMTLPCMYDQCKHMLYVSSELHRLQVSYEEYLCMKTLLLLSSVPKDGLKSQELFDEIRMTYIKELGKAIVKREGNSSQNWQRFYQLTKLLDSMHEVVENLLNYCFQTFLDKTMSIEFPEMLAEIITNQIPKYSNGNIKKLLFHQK

[2] = molecular target: T2, human glucocorticoid receptor alpha (hGRα) (Homo sapiens, UniProt P04150); assay: cell-based; format: cell-based
T2 sequence (P04150 1-777): T1 sequence (P04150 1-777)

[3] = molecular target: T2, human glucocorticoid receptor alpha (hGRα); format: cell-based; conditions: yeast
hGRα [4] = molecular target: T1, hGRα; format: cell-based; conditions: GR-CALUX, co-exposure with 1 or 10 nM dexamethasone
PR = conditions: yeast-based PR bioassay; cited from earlier work
AR [5] = conditions: U2-OS-based CALUX analogue (AR); cited from earlier work
AR [6] = conditions: yeast-based AR bioassay; cited from earlier work
[7] = co-exposure with 150 or 500 μM dexamethasone
[8] = co-exposure with budesonide (5 or 50 μM)
[9] = GR-CALUX, agonism, 24 h exposure

C[C@]12C[C@H](O)[C@H]3[C@@H](CCC4=CC(=O)CC[C@@]43C)[C@@H]1CC[C@@H]2C(=O)CO [Corticosterone, corticosterone]
EC50 (hGRα [1]): 80 nM
agonistic response (luciferase activity), in words (hGRα [1]; compound alone, GR-CALUX): dose-related increase in luciferase activity
RCP (relative corticoid potency) (hGRα [1]; GR-CALUX): 0.03
RCP (relative corticoid potency) [2]: 1.7
agonistic response (production of yEGFP), in words [2]: dose-related increase in the production of yEGFP
EC50 ([2]; EC50): 71 µM

CC(=O)OCC(=O)[C@@]1(O)CC[C@H]2[C@@H]3CCC4=CC(=O)CC[C@]4(C)[C@@]3(F)[C@@H](O)C[C@@]21C [Fludrocortisone-21-acetate, fludrocortisone-21-acetate]
agonistic response (luciferase activity), in words (hGRα [1]; compound alone, GR-CALUX): active
EC50 [2]: Not active

C[C@H]1C[C@H]2[C@@H]3CCC4=CC(=O)C=C[C@]4(C)[C@@]3(F)[C@@H](O)C[C@]2(C)[C@@]1(O)C(=O)CO [Betamethasone, betamethasone]
agonistic response (luciferase activity), in words (hGRα [1]): dose-related increase in luciferase activity
agonistic response (production of yEGFP), in words [2]: dose-related increase in the production of yEGFP

CN(C)c1ccc([C@H]2C[C@@]3(C)[C@@H](CC[C@@]3(O)C#Cc3ccc(S(C)(=O)=O)cc3)[C@@H]3CCC4=CC(=O)CCC4=C32)cc1 [Org 34850]
GR antagonism, in words [3, 7]: only slightly acted as GR antagonists
GR antagonism, in words (hGRα [4]): pure GR antagonist

Clc1ccc(-c2c(Cl)cc(Cl)cc2Cl)c(Cl)c1 [PCB100]
GR antagonism, in words [3, 8]: only act as GR antagonists

C[C@]12CC[C@@H]3c4ccc(O)cc4CC[C@H]3[C@@H]1CC[C@@H]2O [17β-Estradiol (E2), 17β-estradiol]
EC50 (hGRα [1]; [9]): Not active
RCP (relative corticoid potency) (hGRα [1]; GR-CALUX): 0
EC50 [2]: Not active
RCP (relative corticoid potency) [2]: 0.0
agonistic response (production of yEGFP), in words [2]: no agonistic response

C[C@]12CCC(=O)C=C1CC[C@@H]1[C@@H]2[C@@H](O)C[C@]2(C=O)[C@@H](C(=O)CO)CC[C@@H]12 [Aldosterone]
EC50 (hGRα [1]): 495 nM
agonistic response (luciferase activity), in words (hGRα [1]; compound alone, GR-CALUX): dose-related increase in luciferase activity
RCP (relative corticoid potency) (hGRα [1]; GR-CALUX): 0.004
RCP (relative corticoid potency) [2]: 0.2
agonistic response (production of yEGFP), in words [2]: dose-related increase in the production of yEGFP
EC50 ([2]; EC50): 705 µM

Clc1ccc(-c2ccc(Cl)cc2Cl)c(Cl)c1 [PCB47]
GR antagonism, in words [3, 8]: only act as GR antagonists

C[C@]12CCC(=O)C=C1CC[C@@H]1[C@@H]2C(=O)C[C@@]2(C)[C@H]1CC[C@]2(O)C(=O)CO [Cortisone, cortisone]
EC50 (hGRα [1]; [9]): Not active
agonistic response (luciferase activity), in words (hGRα [1]; compound alone, GR-CALUX): no response
RCP (relative corticoid potency) (hGRα [1]; GR-CALUX): 0
EC50 [2]: Not active
RCP (relative corticoid potency) [2]: 0.0
agonistic response (production of yEGFP), in words [2]: no response

C[C@]12C=CC(=O)C=C1CC[C@@H]1[C@@H]2[C@@H](O)C[C@@]2(C)[C@H]1CC[C@]2(O)C(=O)CO [Prednisolone, prednisolone]
agonistic response (luciferase activity), in words (hGRα [1]): dose-related increase in luciferase activity
agonistic response (production of yEGFP), in words [2]: dose-related increase in the production of yEGFP

CCCC1O[C@@H]2C[C@H]3[C@@H]4CCC5=CC(=O)C=C[C@]5(C)[C@H]4[C@@H](O)C[C@]3(C)[C@]2(C(=O)CO)O1 (stereo partly drawn) [Budesonide, budesonide]
agonistic response (luciferase activity), in words (hGRα [1]; compound alone, GR-CALUX): equally potent
agonistic response (production of yEGFP), in words [2]: dose-related increase in the production of yEGFP; also recorded: much more potent than Dex
limit of detection [2]: 0.5 µM

CC#C[C@]1(O)CC[C@H]2[C@@H]3CCC4=CC(=O)CCC4=C3[C@@H](c3ccc(N(C)C)cc3)C[C@@]21C [Mifepristone, mifepristone]
EC50 (hGRα [1]): Not active^b
GR antagonism, in words [3, 7]: only slightly acted as GR antagonists
GR antagonism, in words (hGRα [4]): pure GR antagonists

C[C@@H]1C[C@H]2[C@@H]3CCC4=CC(=O)C=C[C@]4(C)[C@@]3(F)[C@@H](O)C[C@]2(C)[C@@]1(O)C(=O)CO [Dexamethasone, dexamethasone]
agonistic response (luciferase activity), in words (hGRα [1]): dose-related increase in luciferase activity
agonistic response (production of yEGFP), in words [2]: dose-related increase in the production of yEGFP

Clc1ccc(Cl)c(-c2cc(Cl)cc(Cl)c2Cl)c1 [PCB92]
agonistic response (production of yEGFP), in words [2]: slight agonistic effect
GR antagonism, in words [3, 8]: acts as a GR antagonist

C[C@]12C=CC(=O)C=C1CC[C@H]1[C@@H]3C[C@@H](O)[C@](O)(C(=O)CO)[C@@]3(C)C[C@H](O)[C@@]12F [Triamcinolone, triamcinolone]
EC50 (hGRα [1]): 19 nM
RCP (relative corticoid potency) (hGRα [1]; GR-CALUX): 0.1
EC50 [2]: Active^a
RCP (relative corticoid potency) [2]: Active

Clc1ccc(Cl)c(-c2cc(Cl)c(Cl)cc2Cl)c1 [PCB101]
agonistic response (production of yEGFP), in words [2]: agonistic effect that is almost comparable with that of triamcinolone and progesterone
inhibition of the response caused by 5 μM budesonide, in words ([3]; co-exposure with 5 μM budesonide): almost fully inhibiting
inhibition of the response caused by 50 μM budesonide ([3]; co-exposure with 50 μM budesonide): 50%
GR antagonism, in words [3, 8]: strongest GR antagonist

C[C@]12CCC(=O)C[C@@H]1CC[C@@H]1[C@@H]2CC[C@]2(C)[C@@H](O)CC[C@@H]12 [5α-Dihydrotestosterone, 5α-dihydrotestosterone]
EC50 (hGRα [1]): Not active

C[C@]12CCC(=O)C=C1CC[C@@H]1[C@@H]2[C@@H](O)C[C@@]2(C)[C@H]1CC[C@]2(O)C(=O)CO [Cortisol, cortisol]
agonistic response (luciferase activity), in words (hGRα [1]; compound alone, GR-CALUX): dose-related increase in luciferase activity
agonistic response (production of yEGFP), in words [2]: dose-related increase in the production of yEGFP
